From patent publication US20070219155A1, “TREATING TRINUCLEOTIDE REPEAT CONDITIONS” (priority 2006, published 2007)

Key:
human HD fibroblasts [1] = tested on: human HD fibroblasts
Procedure: Human HD fibroblasts (Coriell Cell Repositories) were maintained in MEM medium with 20% FBS. Cells were grown until they reached 70% confluence and then treated with the indicated concentrations of H2O2 for 30 min. The cells were washed, the medium was replaced, and the cells were allowed to recover for three days before repeating the treatment one or two more times. After the third treatment, the cells were collected and DNA was isolated. CAG repeat sizing was performed as described below.

[2] = tested on: lymphoblast cell lines obtained from HD patients; conditions: FIG. 2D
Procedure: DNA was purified from mouse tissues or cultured human fibroblasts (Kovtun et al., Hum. Mol. Genet., 13:3057-3068 (2004)) and used for PCR amplification of various microsatellites. CAG repeats at the hHD locus were amplified as described previously (Kovtun and McMurray, Nat. Genet., 27:407-411 (2001); Kovtun et al., Hum. Mol. Genet., 13:3057-3068 (2004)). […] One primer in each PCR amplification was labeled with FAM-6, and fluorescent products were analyzed using an ABI prism 3700 DNA analyzer instrument and the GeneMapper software v3 (Applied Biosystems).
It was then determined whether peroxide treatment could directly lead to CAG expansion at the hHD locus in human HD fibroblasts in response to oxidative damage.

human HD fibroblasts [3] = experiment: Comet assay of H2O2-treated cells; conditions: cultured cells; FIG. 2F

## OO [H2O2, hydrogen peroxide]
Human HD fibroblasts [1]
  cell viability: did not affect cell viability
Human HD fibroblasts [1]; low (sub-lethal) doses, 30 min treatment repeated up to three times, FIG. 2C
  expansion of CAG repeats at the hHD locus: uniformly led to expansion of CAG at intermediate or disease-length alleles
Human HD fibroblasts [1]; same peroxide-treated cells, FIG. 2E
  expansion of GAA repeats (chromosome 5 locus): expansion was not detected
[2]
  expansion of CAG repeats at the hHD locus: expansions were observed
Human HD fibroblasts [3]
  single strand breaks (comet assay): dose-dependent increase in single strand breaks
